Results as given in ChEMBL document CHEMBL1154336, “The discovery and optimisation of benzazepine sulfonamide and sulfones as potent agonists of the motilin receptor” (Bioorg Med Chem Lett, 2009).
Values after ≈ are worked out from the molar mass of the structure shown.

Columns and labels:
[1] = target: Motilin receptor (Homo sapiens, UniProt O43193); experiment: Agonist activity at human recombinant motilin receptor expressed in CHO cells by FLIPR assay; format: functional, cell-based
[2] = target: T1, Cytochrome P450 3A4 (Homo sapiens, UniProt P08684); experiment: Inhibition of human recombinant CYP3A4 using diethoxyfluorescein as substrate; format: ADME
[3] = target: T2, Growth hormone secretagogue receptor type 1 (Homo sapiens, UniProt Q92847); experiment: Intrinsic activity at human ghrelin receptor relative to ghrelin
[4] = target: D(2) dopamine receptor (Homo sapiens, UniProt P14416); experiment: Agonist activity at dopamine D2 receptor; format: functional
[5] = target: 5-hydroxytryptamine receptor 6 (Homo sapiens, UniProt P50406); experiment: Agonist activity at 5HT6 receptor; format: functional
[6] = target: D(3) dopamine receptor (Homo sapiens, UniProt P35462); experiment: Agonist activity at dopamine D3 receptor; format: functional
[7] = target: T2, Growth hormone secretagogue receptor type 1; experiment: Agonist activity at human ghrelin receptor; format: functional
[8] = target: Cytochrome P450 2D6 (Homo sapiens, UniProt P10635); experiment: Inhibition of human recombinant CYP2D6; format: ADME
[9] = target: T1, Cytochrome P450 3A4; experiment: Inhibition of human recombinant CYP3A4 using 7-{3-(4-phenylpiperazin-1-ylmethyl)benzyl}resorufin as substrate; format: ADME
[10] = target: Cytochrome P450 2C9 (Homo sapiens, UniProt P11712); experiment: Inhibition of human recombinant CYP2C9; format: ADME
[11] = test system: Stomach; experiment: Increase in electric field stimulated contractile response in New Zealand White rabbit gastric antrum at 3 uM after 60 mins; format: functional; settings: Oryctolagus cuniculus, 1 h
[12] = test system: Liver microsomes; experiment: Intrinsic clearance in rat liver microsomes after 30 mins; format: ADME, Microsome; settings: 0.5 h
[13] = test system: Liver microsomes; experiment: Intrinsic clearance in human liver microsomes after 30 mins; format: ADME, Microsome; settings: 0.5 h
[14] = target: Cytochrome P450 2C19 (Homo sapiens, UniProt P33261); experiment: Inhibition of human recombinant CYP2C19; format: ADME
[15] = target: T3, Cytochrome P450 1A2 (Homo sapiens, UniProt P05177); experiment: Inhibition of human recombinant CYP1A2; format: ADME
T3 sequence (P05177 whole entry): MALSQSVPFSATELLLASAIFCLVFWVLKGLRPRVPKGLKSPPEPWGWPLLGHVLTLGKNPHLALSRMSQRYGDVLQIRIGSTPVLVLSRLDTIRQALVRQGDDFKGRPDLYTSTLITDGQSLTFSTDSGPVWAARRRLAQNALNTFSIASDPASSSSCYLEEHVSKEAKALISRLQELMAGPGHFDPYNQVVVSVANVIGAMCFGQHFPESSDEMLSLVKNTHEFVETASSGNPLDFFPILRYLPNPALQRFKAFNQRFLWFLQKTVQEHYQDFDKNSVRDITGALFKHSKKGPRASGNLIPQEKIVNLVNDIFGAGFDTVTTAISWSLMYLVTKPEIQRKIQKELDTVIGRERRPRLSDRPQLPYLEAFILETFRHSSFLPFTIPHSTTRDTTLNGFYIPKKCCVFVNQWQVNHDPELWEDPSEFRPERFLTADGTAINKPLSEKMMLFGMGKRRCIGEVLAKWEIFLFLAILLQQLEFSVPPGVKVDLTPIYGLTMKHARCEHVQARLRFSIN

[16] = target: Voltage-gated inwardly rectifying potassium channel KCNH2 (Homo sapiens, UniProt Q12809); experiment: Inhibition of human ERG
[17] = Aqueous solubility at pH 7.4; format: physicochemical
[18] = test system: Stomach; experiment: Increase in electric field stimulated contractile response in New Zealand White rabbit gastric antrum at 1 uM after 60 mins; format: functional; settings: Oryctolagus cuniculus, 1 h

Sequence of Motilin receptor (O43193 whole entry): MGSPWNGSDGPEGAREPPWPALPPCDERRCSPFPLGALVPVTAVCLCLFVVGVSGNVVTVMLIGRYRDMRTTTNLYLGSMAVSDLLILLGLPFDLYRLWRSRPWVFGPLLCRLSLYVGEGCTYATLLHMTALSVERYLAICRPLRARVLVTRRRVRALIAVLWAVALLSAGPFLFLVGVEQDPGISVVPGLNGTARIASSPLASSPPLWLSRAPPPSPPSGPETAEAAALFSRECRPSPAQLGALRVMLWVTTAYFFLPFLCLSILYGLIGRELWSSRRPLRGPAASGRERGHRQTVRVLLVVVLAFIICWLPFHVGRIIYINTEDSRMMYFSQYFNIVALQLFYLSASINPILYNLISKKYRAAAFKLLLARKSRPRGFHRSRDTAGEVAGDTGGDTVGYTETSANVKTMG
T1 sequence (P08684 whole entry): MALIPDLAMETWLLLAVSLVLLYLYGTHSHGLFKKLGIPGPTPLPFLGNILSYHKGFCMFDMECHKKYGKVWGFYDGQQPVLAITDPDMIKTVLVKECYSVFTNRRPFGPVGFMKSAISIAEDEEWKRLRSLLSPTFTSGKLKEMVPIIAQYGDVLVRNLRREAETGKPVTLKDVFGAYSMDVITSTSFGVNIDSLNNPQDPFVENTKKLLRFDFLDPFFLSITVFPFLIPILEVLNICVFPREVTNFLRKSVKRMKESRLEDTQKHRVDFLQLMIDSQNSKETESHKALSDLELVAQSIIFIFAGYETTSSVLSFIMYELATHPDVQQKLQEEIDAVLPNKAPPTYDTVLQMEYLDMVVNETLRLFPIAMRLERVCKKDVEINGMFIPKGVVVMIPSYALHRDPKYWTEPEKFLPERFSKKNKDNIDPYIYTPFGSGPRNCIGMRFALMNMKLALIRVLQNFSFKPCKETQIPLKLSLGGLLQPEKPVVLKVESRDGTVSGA
T2 sequence (Q92847 whole entry): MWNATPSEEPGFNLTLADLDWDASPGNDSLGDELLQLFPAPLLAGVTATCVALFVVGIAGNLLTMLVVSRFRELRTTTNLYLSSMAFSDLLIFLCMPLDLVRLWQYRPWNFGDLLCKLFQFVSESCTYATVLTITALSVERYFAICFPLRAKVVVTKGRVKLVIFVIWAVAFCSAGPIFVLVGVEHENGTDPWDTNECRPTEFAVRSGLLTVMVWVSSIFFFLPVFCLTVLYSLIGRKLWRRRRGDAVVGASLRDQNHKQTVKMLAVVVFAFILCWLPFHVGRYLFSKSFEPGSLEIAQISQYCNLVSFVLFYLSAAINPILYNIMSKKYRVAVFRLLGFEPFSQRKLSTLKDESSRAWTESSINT
Sequence of Cytochrome P450 2D6 (P10635 whole entry): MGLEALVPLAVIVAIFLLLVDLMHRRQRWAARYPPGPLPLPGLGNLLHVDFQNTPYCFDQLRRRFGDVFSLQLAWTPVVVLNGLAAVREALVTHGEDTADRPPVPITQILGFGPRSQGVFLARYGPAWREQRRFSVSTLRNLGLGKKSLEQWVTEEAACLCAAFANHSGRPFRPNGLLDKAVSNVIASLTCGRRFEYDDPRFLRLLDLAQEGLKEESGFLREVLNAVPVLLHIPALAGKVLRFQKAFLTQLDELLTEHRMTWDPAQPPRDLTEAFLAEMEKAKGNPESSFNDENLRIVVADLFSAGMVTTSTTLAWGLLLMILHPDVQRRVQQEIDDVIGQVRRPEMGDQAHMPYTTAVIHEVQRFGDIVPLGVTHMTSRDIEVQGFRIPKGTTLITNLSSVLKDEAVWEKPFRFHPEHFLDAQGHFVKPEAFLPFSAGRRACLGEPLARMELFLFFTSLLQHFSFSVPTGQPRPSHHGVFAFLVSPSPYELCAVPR
Sequence of D(2) dopamine receptor (P14416 whole entry): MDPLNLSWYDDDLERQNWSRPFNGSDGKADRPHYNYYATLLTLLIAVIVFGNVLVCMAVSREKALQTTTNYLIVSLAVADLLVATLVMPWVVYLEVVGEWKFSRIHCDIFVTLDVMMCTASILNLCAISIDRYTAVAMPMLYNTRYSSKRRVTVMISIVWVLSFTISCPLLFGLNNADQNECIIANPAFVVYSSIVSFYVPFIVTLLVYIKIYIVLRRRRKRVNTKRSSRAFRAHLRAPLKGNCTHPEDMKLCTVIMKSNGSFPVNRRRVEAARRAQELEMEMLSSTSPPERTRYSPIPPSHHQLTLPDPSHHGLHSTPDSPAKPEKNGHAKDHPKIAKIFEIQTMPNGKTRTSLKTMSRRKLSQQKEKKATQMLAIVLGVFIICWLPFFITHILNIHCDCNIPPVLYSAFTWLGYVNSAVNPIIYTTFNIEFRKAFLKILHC
Sequence of D(3) dopamine receptor (P35462 whole entry): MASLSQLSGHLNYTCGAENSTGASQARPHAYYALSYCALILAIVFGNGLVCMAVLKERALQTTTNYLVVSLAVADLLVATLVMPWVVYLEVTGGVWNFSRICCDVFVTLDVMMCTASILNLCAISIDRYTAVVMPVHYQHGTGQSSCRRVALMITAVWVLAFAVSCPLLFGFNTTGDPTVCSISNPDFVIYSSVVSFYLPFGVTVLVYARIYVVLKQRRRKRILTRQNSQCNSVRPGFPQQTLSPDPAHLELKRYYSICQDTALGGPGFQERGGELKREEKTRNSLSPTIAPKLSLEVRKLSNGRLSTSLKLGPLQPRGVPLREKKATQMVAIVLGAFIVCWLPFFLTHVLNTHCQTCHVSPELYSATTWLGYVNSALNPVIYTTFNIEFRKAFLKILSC
Sequence of Cytochrome P450 2C9 (P11712 whole entry): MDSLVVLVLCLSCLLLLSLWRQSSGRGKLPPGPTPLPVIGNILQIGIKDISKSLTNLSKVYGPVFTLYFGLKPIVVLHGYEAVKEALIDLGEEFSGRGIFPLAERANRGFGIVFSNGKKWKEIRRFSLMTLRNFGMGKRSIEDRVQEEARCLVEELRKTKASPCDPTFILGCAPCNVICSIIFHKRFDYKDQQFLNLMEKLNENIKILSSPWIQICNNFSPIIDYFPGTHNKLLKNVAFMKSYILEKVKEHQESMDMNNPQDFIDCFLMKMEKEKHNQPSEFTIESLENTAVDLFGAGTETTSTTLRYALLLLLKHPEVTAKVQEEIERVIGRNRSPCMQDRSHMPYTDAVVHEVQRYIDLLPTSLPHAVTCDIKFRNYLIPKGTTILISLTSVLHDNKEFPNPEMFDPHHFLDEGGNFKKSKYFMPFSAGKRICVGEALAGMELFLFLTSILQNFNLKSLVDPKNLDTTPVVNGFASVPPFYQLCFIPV
Sequence of 5-hydroxytryptamine receptor 6 (P50406 whole entry): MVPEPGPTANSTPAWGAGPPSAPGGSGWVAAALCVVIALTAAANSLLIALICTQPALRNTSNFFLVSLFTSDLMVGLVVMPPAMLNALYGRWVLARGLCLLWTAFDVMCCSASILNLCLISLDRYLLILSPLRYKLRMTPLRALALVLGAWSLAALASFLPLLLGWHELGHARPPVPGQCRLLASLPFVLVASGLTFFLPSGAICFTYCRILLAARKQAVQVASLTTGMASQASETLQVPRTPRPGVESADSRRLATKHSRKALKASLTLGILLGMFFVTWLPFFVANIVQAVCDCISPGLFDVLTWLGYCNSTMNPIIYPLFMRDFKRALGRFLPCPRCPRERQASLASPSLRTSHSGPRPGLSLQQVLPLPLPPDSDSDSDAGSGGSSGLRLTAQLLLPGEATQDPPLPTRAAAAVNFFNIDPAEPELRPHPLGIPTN
Sequence of Cytochrome P450 2C19 (P33261 whole entry): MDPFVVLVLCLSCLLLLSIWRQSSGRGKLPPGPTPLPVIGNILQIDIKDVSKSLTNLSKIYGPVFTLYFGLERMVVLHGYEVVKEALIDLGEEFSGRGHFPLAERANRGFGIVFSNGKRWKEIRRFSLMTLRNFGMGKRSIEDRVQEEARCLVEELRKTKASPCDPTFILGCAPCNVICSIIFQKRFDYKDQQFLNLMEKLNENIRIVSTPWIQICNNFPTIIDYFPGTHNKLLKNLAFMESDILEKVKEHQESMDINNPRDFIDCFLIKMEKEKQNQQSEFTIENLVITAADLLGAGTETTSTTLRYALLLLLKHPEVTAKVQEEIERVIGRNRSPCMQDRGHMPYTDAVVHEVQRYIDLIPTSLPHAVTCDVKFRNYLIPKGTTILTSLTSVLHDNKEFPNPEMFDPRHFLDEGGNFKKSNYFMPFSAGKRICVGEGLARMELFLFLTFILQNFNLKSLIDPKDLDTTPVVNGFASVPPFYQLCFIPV

SMILES | EC50 [1] [nM] | EC50 [7] [nM] | IC50 [8] [nM] | also measured
O=C(Nc1ccc(N2CCOCC2)nc1)c1ccc2c(c1)CCNCC2 | > 12600 |  |  | 
CCCCc1ccc(S(=O)(=O)Nc2ccc3c(c2)CCN(C2CCN(C)CC2)CC3)cc1 | > 12600 |  |  | 
Cc1ccc(S(=O)(=O)Nc2ccc3c(c2)CCN(Cc2cc[nH]n2)CC3)cc1Cl |  |  |  | Intrinsic activity [3]: 0.7
O=S(=O)(Nc1ccc2c(c1)CCN(Cc1cc[nH]n1)CC2)c1ccc(-c2ccccn2)s1 | 7.94 | > 10000 | 200 | IC50 [10]: 400 nM; Ki [4]: > 794 nM; Ki [5]: 158 nM; Ki [6]: 200 nM; Emax at 3 µM [11]: 190%
CCCCc1ccc(S(=O)(=O)Nc2ccc3c(c2)CCN(Cc2cccs2)CC3)cc1 | 2510 | > 1000 |  | 
CCCCc1ccc(S(=O)(=O)Nc2ccc3c(c2)CCN(C2CCN(C(C)=O)CC2)CC3)cc1 | > 2510 |  |  | 
CCCCc1ccc(S(=O)(=O)Nc2ccc3c(c2)CCN(Cc2cncn2C)CC3)cc1 | 3160 |  |  | 
O=S(=O)(Nc1ccc2c(c1)CCNCC2)c1ccc(N2CCOCC2)nc1 | 1580 |  |  | 
O=S(=O)(Cc1ccc2c(c1)CCNCC2)c1ccc2ccccc2c1 | 1260 | > 10000 |  | 
CN(C(=O)c1ccc(N2CCOCC2)nc1)c1ccc2c(c1)CCNCC2 | > 12600 |  |  | 
O=S(=O)(Nc1ccc(N2CCOCC2)nc1)c1ccc2c(c1)CCNCC2 | 2510 |  |  | 
O=S(=O)(Cc1ccc2c(c1)CCNCC2)c1ccc(Oc2ccc(F)cc2)nc1 | 501 | > 1000 | 1700 | 
CC(C)S(=O)(=O)Nc1ccc2c(c1)CCN(Cc1ccn[nH]1)CC2 | > 12600 |  | 16000 | 
O=S(=O)(Cc1ccc2c(c1)CCNCC2)c1ccccc1 | > 12600 | > 10000 |  | 
O=S(=O)(Cc1ccccc1)Nc1ccc2c(c1)CCN(Cc1ccn[nH]1)CC2 | 2510 | > 1000 |  | 
CCCCc1ccc(S(=O)(=O)Nc2ccc3c(c2)CCN(Cc2ccn[nH]2)CC3)cc1 | 2.51 | 79.4 | < 100 | IC50 [2]: 800 nM; IC50 [10]: 600 nM; Ki [4]: 100 nM; Ki [6]: 3.98 nM; IC50 [14]: 8800 nM; IC50 [9]: 1900 nM; IC50 [15]: 29000 nM; IC50 [16]: 2510 nM; solubility [17]: 10000 µg/mL (≈ 22.8 mM)

More lines, main results first:

EC50 [1] [nM] | EC50 [7] [nM] | IC50 [8] [nM] | SMILES | also measured
10 | 1580 | < 100 | O=S(=O)(Nc1ccc2c(c1)CCN(Cc1cc[nH]n1)CC2)c1ccc(-c2ccccc2)cc1 | IC50 [2]: < 100 nM; Intrinsic activity [3]: 0.7; Ki [4]: 631 nM; Ki [5]: 126 nM; Ki [6]: 31.6 nM; IC50 [9]: < 100 nM
158 | > 1000 |  | N#Cc1ccc(-c2ccc(S(=O)(=O)Cc3ccc4c(c3)CCNCC4)cn2)cc1 | 
25.1 | > 1000 | 100 | O=S(=O)(Cc1ccc2c(c1)CCNCC2)c1ccc(-c2ccc(F)c(F)c2)cc1 | CL [12]: 1.1 mL/min/g; CL [13]: 1 mL/min/g
39.8 | > 1000 |  | CC(C)COc1ccc(S(=O)(=O)Cc2ccc3c(c2)CCNCC3)cn1 | 
5.01 | 631 | 500 | CC1(C)CCc2cc(S(=O)(=O)Nc3ccc4c(c3)CCN(Cc3cc[nH]n3)CC4)ccc2O1 | 
7.94 | > 1000 | < 100 | O=S(=O)(Cc1ccc2c(c1)CCNCC2)c1ccc(-c2ccc(Cl)cc2)nc1 | CL [12]: < 1 mL/min/g; CL [13]: < 1 mL/min/g
20 | > 1000 | 300 | O=S(=O)(Cc1ccc2c(c1)CCNCC2)c1ccc(Nc2ccc(F)cc2)nc1 | CL [12]: < 0.5 mL/min/g; CL [13]: < 1 mL/min/g
63.1 | > 1000 | 1100 | O=S(=O)(Cc1ccc2c(c1)CCNCC2)c1ccc(N2CCCCC2)nc1 | 
5.01 | > 1000 | 600 | O=S(=O)(Cc1ccc2c(c1)CCNCC2)c1ccc(-c2ccc(F)cc2)nc1 | Emax at 1 µM [18]: 54%; CL [12]: < 0.5 mL/min/g; CL [13]: < 1 mL/min/g
